Where a name gives a salt, the structure may show the parent alone. Starred links: 1 amine or outer side, 2 acyl side, 3 side chain; linkers in the order of their positions; H or OH if unused. Non-standard residues stand in square brackets, D forms with d. Residues, ends and D or L forms follow the SMILES beside them. *: point of attachment. Pyrrolidine(2S-CN,4,4-F2) = N#C[C@@H]1CC(F)(F)CN1*; X7 = CCCCC[C@@H](O)[C@H](N[*:1])C(=O)[*:2]; NMeAla(cPent) = CN[C@@H](CC1CCCC1)C(=O)O; AEF = NCCOc1ccc(C[C@H](N)C(=O)O)cc1; NMeCha = CN[C@@H](CC1CCCCC1)C(=O)O; Hyp = O=C(O)[C@@H]1C[C@@H](O)CN1; NMeF = CN[C@@H](Cc1ccccc1)C(=O)O; dHyp = O=C(O)[C@H]1C[C@H](O)CN1; Aoc(2) = CCCCCC[C@H](N)C(=O)O; Ahp(2) = CCCCC[C@H](N)C(=O)O; hSer = N[C@@H](CCO)C(=O)O; X3 = FC1(F)CCN(*)C1
What was measured:
[1] = target: T1, mouse FAP (Mus musculus, UniProt P97321); test: Surface plasmon resonance (SPR) for peptide affinity, mouse FAP; format: binding
T1 construct: biotinylated His, Avi tag, mouse FAP (26-761, FAP-M82Q5); His; Avi tag (biotinylated); purchased AcroBiosystems FAP-M82Q5
T1 sequence (P97321 26-761): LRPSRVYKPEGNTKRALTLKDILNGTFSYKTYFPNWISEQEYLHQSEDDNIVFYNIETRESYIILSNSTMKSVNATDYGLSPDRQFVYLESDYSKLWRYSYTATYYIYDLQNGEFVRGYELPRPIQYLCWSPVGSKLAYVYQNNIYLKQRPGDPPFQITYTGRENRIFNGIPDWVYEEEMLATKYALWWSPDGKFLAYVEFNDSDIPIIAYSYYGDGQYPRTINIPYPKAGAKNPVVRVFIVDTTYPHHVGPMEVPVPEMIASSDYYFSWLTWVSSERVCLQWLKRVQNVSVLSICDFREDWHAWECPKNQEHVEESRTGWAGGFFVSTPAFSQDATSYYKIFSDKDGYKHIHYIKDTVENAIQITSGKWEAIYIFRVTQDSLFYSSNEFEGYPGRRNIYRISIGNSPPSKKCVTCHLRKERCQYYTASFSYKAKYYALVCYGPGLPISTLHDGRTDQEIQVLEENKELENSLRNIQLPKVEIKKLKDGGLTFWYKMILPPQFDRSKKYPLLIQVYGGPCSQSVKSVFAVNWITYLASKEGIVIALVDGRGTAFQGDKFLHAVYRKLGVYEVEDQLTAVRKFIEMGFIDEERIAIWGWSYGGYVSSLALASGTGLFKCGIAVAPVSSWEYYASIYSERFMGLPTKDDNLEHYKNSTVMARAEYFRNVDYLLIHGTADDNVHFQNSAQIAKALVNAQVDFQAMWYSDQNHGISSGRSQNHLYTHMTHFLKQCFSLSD
Description: Peptide affinities (KD) were determined by SPR using a Biacore™ 8K device (Cytiva) towards the following proteins: biotinylated His, Avi tag, human FAP (26-760, FAP-H82Q6), biotinylated His, Avi tag, mouse FAP (26-761, FAP-M82Q5), His tag, human DPP4 (34-766, DP4-H82E3), all purchased from AcroBiosystems and His tag, mouse DPP4 (29-760, 954-SE) from R&D Systems. The FAP proteins and their homologous were diluted to a concentration of 2 μg/mL into acetate buffer pH 5.5, then immobilized onto a CM5 sensorchip (Cytiva, BR-1005-30) to reach a response around 2000 R U. The running buffer HBS-EP+pH 7.6 (20× from Teknova CAT. No: H8022) contained 10 mM HEPES pH 7.6, 150 mM NaCl, 3 mM EDTA, 0.05% Tween20 and 2% DMSO. Experiments were carried out at 25° C. using a flow rate of 30 μL/min. Compounds were tested in single cycle kinetic mode at 8 different concentrations. Curve fitting was performed using the Biacore™ 8K evaluation software. The sensorgrams were fitted by applying a 1:1 binding model to calculate kinetic rate constants and equilibrium dissociation constants (KD).
For this assay, the setup had the same conditions (flow rate, running buffer, peptide dilution) as described above for the CM5 method. The oligo CAP reagent obtained in the CAPture Kit (Ref. 28920234) was 1/5 diluted into running buffer and used with a contact time of 300 s at a flow rate of 2 μL/min. The human and mouse FAP constructs described above were used (from AcroBiosystems or produced in house). The FAP proteins were diluted to a concentration of 2 μg/mL into acetate pH 5.5, 0.05% Tween20 and used with a contact time of 600 s at a flow rate of 10 μL/min. The peptides were tested with an association time of 280 s followed by a dissociation time of 3000 s at a flow rate of 30 μL/min. The regeneration was done using the regeneration solution (8 M guanidine-HCl, 1 M NaOH) as obtained with a contact time of 270 s at a flow rate of 10 μL/min. […] The compounds marked with an asterisk were tested against human and mouse DDP4.

[2] = target: T2, human FAP (Homo sapiens, UniProt Q12884); test: Enzymatic FAP competition assay (Z-Gly-Pro-AMC fluorescence), human FAP; format: biochemical; settings: read-out: h. FAP, Enz., IC50
T2 construct: the biotinylated His, Avi tag, human FAP (26-760, FAP-H82Q6); His; Avi tag (biotinylated); purchased AcroBiosystems FAP-H82Q6
T2 sequence (Q12884 26-760): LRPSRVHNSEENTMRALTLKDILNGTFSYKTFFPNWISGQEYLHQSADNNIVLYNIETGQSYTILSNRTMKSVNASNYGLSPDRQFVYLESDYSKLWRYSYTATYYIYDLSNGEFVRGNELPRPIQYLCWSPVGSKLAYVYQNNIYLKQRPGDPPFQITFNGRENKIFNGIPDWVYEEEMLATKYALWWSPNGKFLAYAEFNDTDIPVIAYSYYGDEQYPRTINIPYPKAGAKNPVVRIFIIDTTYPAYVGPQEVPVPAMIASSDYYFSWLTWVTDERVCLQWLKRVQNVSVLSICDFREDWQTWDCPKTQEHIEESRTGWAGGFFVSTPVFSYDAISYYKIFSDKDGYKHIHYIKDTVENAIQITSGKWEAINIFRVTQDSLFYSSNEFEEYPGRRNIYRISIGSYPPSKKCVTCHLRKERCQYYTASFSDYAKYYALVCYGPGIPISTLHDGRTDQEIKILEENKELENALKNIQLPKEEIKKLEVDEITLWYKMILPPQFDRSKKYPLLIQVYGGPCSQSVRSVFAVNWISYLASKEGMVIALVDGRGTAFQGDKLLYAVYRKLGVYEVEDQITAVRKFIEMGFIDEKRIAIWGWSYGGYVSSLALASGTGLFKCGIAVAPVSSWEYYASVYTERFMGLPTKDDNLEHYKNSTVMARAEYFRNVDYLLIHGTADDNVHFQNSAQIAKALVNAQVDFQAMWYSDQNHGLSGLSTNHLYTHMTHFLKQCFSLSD
Description: (§1) Peptide potencies (IC50) to inhibit the FAP enzymatic activity were determined using a fluorescence-based assay towards the biotinylated His, Avi tag, human FAP (26-760, FAP-H82Q6) and the biotinylated His, Avi tag, mouse FAP (26-761, FAP-M82Q5). Standard assay conditions consisted of 20 μL total volume in white 384-well plates (Greiner, Ref. 784075), in 50 mM phosphate buffer pH 7.5 containing 150 mM NaCl, 0.05% Tween20 and 1% final DMSO. Tested peptides at 14 different concentrations up to 1 μM were added to 0.01 nM human or mouse FAP. The peptides were incubated for 24 hours together with the protein before adding the substrate 50 μM Z-Gly-Pro-AMC (I-1145 from Bachem). Samples were then incubated at 22-24° C. for 4 h before reading the fluorescence at excitation wavelength of 380 nm and emission wavelength of 460 nm using the Tecan Infinite® M1000 PRO. The high control (100% activity) was not containing any peptide, and an internal potent peptide was added at 10 μM concentration for the low control (100% inhibition). IC50 values were calculated by curve fitting using an in-house developed software (Novartis Helios software application) using the method described by Fomenko et al., 2006 (regression algorithms for nonlinear dose-response curve fitting). Following normalization of activity values for the wells to % inhibition (% inhibition=[(high control-sample)/(high control-low control)]x 100). IC50 fitting was carried out from the duplicated points.

[3] = target: T1, mouse FAP; test: Enzymatic FAP competition assay (Z-Gly-Pro-AMC fluorescence), mouse FAP; format: biochemical; settings: read-out: m. FAP, Enz., IC50
Description: as §1

| SMILES | Kd [1] [nM] | IC50 [2] [nM] | IC50 [3] [nM] |
| --- | --- | --- | --- |
| CN1C(=O)CNC(=O)[C@H](CCCCN)NC(=O)[C@H]2CCCN2C(=O)[C@H](CC(=O)O)NC(=O)[C@H](Cc2ccc(O)cc2)NC(=O)CNC(=O)[C@H](Cc2c[nH]c3ccccc23)NC(=O)[C@H](CCC(=O)N2CC(F)(F)C[C@H]2C#N)NC(=O)[C@H](Cc2ccc(O)cc2)NC(=O)[C@@H]1Cc1ccccc1 [Example A29, Lys-Gly-NMePhe-Tyr-Q(Pyrro(2CN4F2))-Trp-Gly-Tyr-Asp-D-Pro] (cyclo(KG[NMeF]YE(Pyrrolidine(2S-CN,4,4-F2))WGYD[dP])) | 0.044 | 0.059 | 0.082 |
| CN1C(=O)CNC(=O)[C@H](CCCCN)NC(=O)[C@H]2CCCN2C(=O)[C@H](CC(=O)O)NC(=O)[C@H](Cc2ccc(O)cc2)NC(=O)CNC(=O)[C@H](Cc2c[nH]c3ccccc23)NC(=O)[C@H](CCC(=O)N2CCC(F)(F)C2)NC(=O)[C@H](Cc2ccc(O)cc2)NC(=O)[C@@H]1Cc1ccccc1 [Example A30, Lys-Gly-NMePhe-Tyr-Q(Pyrro(4F2))-Trp-Gly-Tyr-Asp-D-Pro, TFA salt] (cyclo(D[dP]KG[NMeF]YE(X3)WGY)) | 2.4 | 0.79 | 2.5 |
| CCCCCC[C@@H]1NC(=O)[C@H](Cc2ccc(O)cc2)NC(=O)[C@H](Cc2ccccc2)N(C)C(=O)CNC(=O)[C@H](CCCCN)NC(=O)[C@H]2CCCN2C(=O)[C@H](CC(=O)O)NC(=O)[C@H](Cc2ccc(O)cc2)NC(=O)CNC(=O)[C@H](Cc2c[nH]c3ccccc23)NC1=O [Example A31, Lys-Gly-NMePhe-Tyr-Aoc-Trp-Gly-Tyr-Asp-D-Pro, TFA salt] (cyclo([Aoc(2)]WGYD[dP]KG[NMeF]Y)) | 0.106 | 0.04 | 0.158 |
| CCCCC[C@@H]1NC(=O)[C@H](Cc2ccc(OCCN)cc2)NC(=O)[C@H](Cc2ccccc2)N(C)C(=O)CNC(=O)[C@@H]2C[C@@H](O)CN2C(=O)[C@H]2CCCN2C(=O)[C@H](CC(=O)O)NC(=O)[C@H](Cc2ccc(O)cc2)NC(=O)CNC(=O)[C@H](Cc2c[nH]c3ccccc23)NC1=O [Example A33, trans4Hyp-Gly-NMePhe-F(4OEtNH2)-Ahp-Trp-Gly-Tyr-Asp-D-Pro] (cyclo([AEF][Ahp(2)]WGYD[dP][Hyp]G[NMeF])) | 1.1 | 1 | 3.2 |
| CCCCC[C@@H](O)[C@@H]1NC(=O)[C@H](Cc2ccc(O)cc2)NC(=O)[C@H](Cc2ccccc2)N(C)C(=O)CNC(=O)CNC(=O)[C@H]2CCCN2C(=O)[C@H](CC(=O)O)NC(=O)[C@H](Cc2ccc(O)cc2)NC(=O)CNC(=O)[C@H](Cc2c[nH]c3ccccc23)NC1=O [Example A34, Gly-Gly-NMePhe-Tyr-Aoc(3R-OH)-Trp-Gly-Tyr-Asp-D-Pro] (cyclo(D[dP]GG[NMeF]Y[X7]WGY)) | 0.25 | 0.055 | 0.4 |
| CCCCC[C@@H]1NC(=O)[C@H](Cc2ccc(O)cc2)NC(=O)[C@H](Cc2ccccc2)N(C)C(=O)CNC(=O)[C@H](CCCCN)NC(=O)[C@H]2C[C@H](O)CN2C(=O)[C@H](CC(=O)O)NC(=O)[C@H](Cc2ccc(O)cc2)NC(=O)CNC(=O)[C@H](Cc2c[nH]c3ccccc23)NC1=O [Example A41, Lys-Gly-NMePhe-Tyr-Ahp-Trp-Gly-Tyr-Asp-D-trans4hyp, TFA salt] (cyclo([Ahp(2)]WGYD[dHyp]KG[NMeF]Y)) | 12 | 2.2 | 5.3 |
| CCCCC[C@@H]1NC(=O)[C@H](Cc2ccc(O)cc2)NC(=O)[C@H](Cc2ccccc2)N(C)C(=O)CNC(=O)[C@H](CCO)NC(=O)[C@H]2CCCN2C(=O)[C@H](CC(=O)O)NC(=O)[C@H](Cc2ccc(O)cc2)NC(=O)CNC(=O)[C@H](Cc2c[nH]c3ccccc23)NC1=O [Example A42, hSer-Gly-NMePhe-Tyr-Ahp-Trp-Gly-Tyr-Asp-D-Pro] (cyclo([Ahp(2)]WGYD[dP][hSer]G[NMeF]Y)) | 0.2 | 0.089 | 0.36 |
| CCCCC[C@@H]1NC(=O)[C@H](Cc2ccc(O)cc2)NC(=O)[C@H](CC2CCCCC2)N(C)C(=O)CNC(=O)[C@H](CCCCN)NC(=O)[C@H]2CCCN2C(=O)[C@H](CC(=O)O)NC(=O)[C@H](Cc2ccc(O)cc2)NC(=O)CNC(=O)[C@H](Cc2c[nH]c3ccccc23)NC1=O [Example A43, Lys-Gly-NMecHexA-Tyr-Ahp-Trp-Gly-Tyr-Asp-D-Pro, TFA salt] (cyclo([Ahp(2)]WGYD[dP]KG[NMeCha]Y)) | 0.188 | 0.069 | 0.189 |
| CCCCC[C@@H]1NC(=O)[C@H](Cc2ccc(O)cc2)NC(=O)[C@H](CC2CCCC2)N(C)C(=O)CNC(=O)[C@H](CCCCN)NC(=O)[C@H]2CCCN2C(=O)[C@H](CC(=O)O)NC(=O)[C@H](Cc2ccc(O)cc2)NC(=O)CNC(=O)[C@H](Cc2c[nH]c3ccccc23)NC1=O [Example A44, Lys-Gly-NMecPenA-Tyr-Ahp-Trp-Gly-Tyr-Asp-D-Pro, TFA salt] (cyclo([Ahp(2)]WGYD[dP]KG[NMeAla(cPent)]Y)) | 2.7 | 0.54 | 2.5 |
